Data as given in patent US12023336B2, “Antiviral drug compounds and composition thereof” (priority 2018, dated 2024).
Counter-ions that a name gives are not always drawn.

What follows are compounds tested on HIV-1NL4.3 (assay: microbe, parasite or virus in culture). Settings: 10 μM; HIV-1NL4.3 0.1 MOI; TZM-bl cells; luminescence 48 h.
Format: cell-based
Experimental: TZM-bl cells were seeded at the density of 12,000-15,000 cells/well of 96 well plate with 100 μL DMEM (with 10% FBS) in each well. 12-hours post seeding, the media was replaced with fresh DMEM containing HTV-1NL4.3 at 0.1 MOI and cells were treated with different molecules independently at 10 μM working concentration. Cells were incubated in humidified CO2 incubator for 4-hours. After incubation, the media was replaced and cells were washed twice with incomplete DMEM and 100 μL of complete DMEM was added in each wells along with the molecules of interest and incubated at 37° C. in humidified CO2 incubator. 48-hours post incubation, the media was removed and cells were washed twice with 100 μL of 1×PBS. After washing, cells were lysed using cell culture lysis reagent and Steady-Glo substrate was added at 1:1 ration in each well. Luminescence was measured using Molecular Devices M5 (Table 2). % Inhibition was calculated using following formula and plotted.
[formula] (RLU=Relative Luminescence Unit)

| SMILES | % Inhibition at 10 μM Concentration |
| --- | --- |
| CCOC(=O)c1ncn2c1[C@@H]1CCCN1C(=O)c1cc(OC)ccc1-2 [L-655,708] | 97.43% |
| CC(=O)OC[C@H]1O[C@@H]([S-])[C@H](OC(C)=O)[C@@H](OC(C)=O)[C@@H]1OC(C)=O.CCP(CC)CC.[Au+] [Auranofin] | 96.08% |
| COc1ccccc1CNCCCCCCNCCCCCCCCNCCCCCCNCc1ccccc1OC [Methoctramine tetrahydrochloride] | 98.94% |
| N[C@@H](Cn1oc(=O)[nH]c1=O)C(=O)O [(+)-Quisqualic acid] | 99.30% |
| Oc1ccc(/C=C/c2ccc(/C=C/c3ccc(O)cc3)c(Br)c2)cc1 [K114] | 96.16% |
| COc1ccc(-c2cc3nccn3c(Nc3ncccc3C(N)=O)n2)cc1OC.Cl.O [BAY 61-3606 hydrochloride hydrate] | 95.05% |
| CC(C)NC[C@H](O)COc1cccc2ccccc12.Cl [(S)-Propranolol hydrochloride] | 99.30% |
| Nc1ccc(-c2nc3ccc(-c4nc5ccc(N)cc5[nH]4)cc3[nH]2)cc1 [RO 90-7501] | 99.67% |
| O=C(O)/C=C\C(=O)O.O=C1/C(=C/c2ccccc2)C[C@@]2(O)[C@H]3Cc4ccc(O)c5c4[C@@]2(CCN3CC2CC2)[C@H]1O5 [BNTX maleate salt hydrate] | 99.26% |
| O=C(Nc1cccc(C(=O)Nc2ccc(S(=O)(=O)O)c3cc(S(=O)(=O)O)cc(S(=O)(=O)O)c23)c1)Nc1cccc(C(=O)Nc2ccc(S(=O)(=O)O)c3cc(S(=O)(=O)O)cc(S(=O)(=O)O)c23)c1 [NF 023] | 95.77% |
| CCc1ccccc1OC[C@@H](O)CN[C@H]1CCCc2ccccc21.O=C(O)C(=O)O [SR 59230A oxalate] | 97.52% |
| O=Nc1ccc2oc(=O)ccc2c1 [6-Nitroso-1,2-benzopyrone] | 99.15% |
| NC(Cc1cc(O)c(O)cc1O)C(=O)O (racemic) [6-Hydroxy-DL-DOPA] | 96.67% |

Same assay, conditions: Human immunodeficiency virus 1, TZM-bl, 48 h, read-out: % Inhibition at 10 μM Concentration

| SMILES | inhibition at 10 µM |
| --- | --- |
| O=C1c2ccccc2C(=O)c2c(NCCc3ccc(O)cc3)ccc(NCCc3ccc(O)cc3)c21 [1,4-Bis[(p-hydroxyphenethyl)amino]-anthraquinone] | 98.9% |
| N#CC(=C(/N)Sc1ccccc1N)/C(C#N)=C(\N)Sc1ccccc1N [U0126] | 97.4% |
| CNCCCC12CCC(c3ccccc31)c1ccccc12 [Maprotiline hydrochloride] | 98.9% |

Same assay, conditions: Human immunodeficiency virus 1; 10 μM; HIV-1NL4.3 0.1 MOI; TZM-bl cells; luminescence 48 h; read-out: % Inhibition at 10 μM Concentration

| SMILES | inhibition at 10 µM |
| --- | --- |
| Cc1ccc(-c2cc(C(F)(F)F)nn2-c2ccc(S(N)(=O)=O)cc2)cc1 [Celecoxib] | 95.1% |
| CNCCC=C1c2ccccc2CCc2ccccc21 [Nortriptyline hydrochloride] | 99.2% |
| O=C1Cc2c([nH]c3ccc(Br)cc23)-c2ccccc2N1 [Kenpaullone] | 98.7% |
| CCCCN(CC)c1nc(C)nc2c1c(C)cn2-c1c(C)cc(C)cc1C [CP-154526 hydrochloride] | 97.1% |
| CC[C@@]1(O)C(=O)OCc2c1cc1n(c2=O)Cc2cc3c(CN(C)C)c(O)ccc3nc2-1 [Topotecan hydrochloride hydrate] | 98.1% |
| O=C(O)C1=CC(=C(c2ccc(O)c(C(=O)O)c2)c2ccc(O)c(C(=O)O)c2)C=CC1=O [Aurintricarboxylic acid] | 97.2% |
| CC(=O)O[C@]1(C(C)=O)CC[C@H]2[C@@H]3C=C(Cl)C4=CC(=O)[C@@H]5C[C@@H]5[C@]4(C)[C@H]3CC[C@@]21C [Cyproterone acetate] | 98.5% |
| Oc1c2ccccc2c2c3c(cccc13)N=N2 [SP600125] | 97.5% |
| Cc1cnc(C(=O)NCCc2ccc(S(=O)(=O)NC(=O)NC3CCCCC3)cc2)cn1 [Glipizide] | 98.5% |
| CCCCNc1c(C(=O)OCC)c(C)nc2c1cnn2CC [Tracazolate] | 99.1% |
| CC(C)(C)c1ccc(C(O)CCCN2CCC(C(O)(c3ccccc3)c3ccccc3)CC2)cc1 (stereo not shown) [Terfenadine] | 98.7% |
| COc1cc2nc(N3CCN(C(=O)C4COc5ccccc5O4)CC3)nc(N)c2cc1OC (stereo not shown) [Doxazosin mesylate] | 100% |
